Measured values from patent US10112881B2, “Skin lightening compounds” (WiSys Technology Foundation, Inc., priority 2014, dated 2018).
“Also recorded” adds a separate entry of the source.

Experiments:
[1] = test system: Mouse melanoma cell line B16-F10; experiment: Mouse melanoma cell proliferation (cell count after 48 hours); type: cell-based
Text: (§1) Mouse melanoma cell line B16-F10 is a commonly used mammalian cells for melanogenesis and melanocyte studies. […] MoTP. […] The two graphs on top are cell number per 0.5 cubic mm. The Y axis in the lower two graphs is absorbance of 490 nm visible light by melanin. Higher absorbance means more melanin.
(§2) In this experiment, we first seeded approximately the same number of cells in each well of the 24-well plate supplied with fresh complete growth medium with different skin lightening compound. After 48 hours of incubation, we counted the cell numbers to evaluate the cell proliferation and lysed the cells from additional identically set-up wells and measured the total amount of melanin in treated melanoma.

zebrafish embryos [2] = experiment: Apoptosis labeling in compound-treated embryos; type: in vivo; conditions: fluorescence/enzymatic labeling
Text: FIGS. 7A-7B are photographs and an associated graph illustrating the cell death by skin lightening compounds. Embryos treated with skin lightening compounds were fixed and processed for enzymatic labeling for apoptosis.
Although it is rare, one compound MoTP was reported to cause cell death specifically in melanocyte. We tested whether other skin lightening compounds can also cause melanocyte cell death. Using a fluorescence labeling assay, we were able to detect the apoptotic cells. Although we were not able to specifically identify apoptotic melanocyte due to technical difficulties, we were able to evaluate the overall cell death in the compound treated embryos.

zebrafish embryos [3] = conditions: embryos incubated 24 to 72 hpf
Description: Zebrafish embryos were incubated in compounds from 24 hpf (hours post fertilization) to 72 hpf.
(§3) The testing protocols for these compounds are as follows: • a. To test the inhibition of pigment formation, the zebrafish embryos were treated with the drugs from 24 to 72 hours post-fertilization (hpf). The embryos were monitored and imaged throughout their development to track the development of melanin pigment relative to a control group to which water was administered (Protocol 1). • b. […] The embryos were again monitored and imaged throughout their development relative to a control group to which water was administered (Protocol 2). • c. Additionally, to test the ability of the pigment to recover after being treated with our drugs, all embryos were treated at 24 hpf with the chemicals until the 68 hpf or 72 hpf time period, then washed with water to remove the treatment. The embryos were again monitored and imaged throughout their development relative to a control group to which water was administered (Protocol 3). Comparison of Skin-Lightening Compounds
The black pigment (or melanin) is very easy to observe in zebrafish. In brief, adult zebrafish are taken to breed embryos. Morphologically normal embryos of 24 hours post fertilization (hpf) stage will be selected for incubation in the drugs from 24 to 72 hours. During the incubation, the embryos are monitored and imaged (see FIG. 1) to track the development of melanin. […] To broaden the comparison with other skin-lightening products, this project can also test other compounds, kojic acid, gallic acid, (2-Morpholinobutyl)-4-thiophenol/MoTP and Haginin/phenoxidiol. […] In the meantime, the whole organism context also allows us to examine the toxicological profile, if any, of these compounds. The same protocol is also used for the experiments using the melanoma forming zebrafish.

[4] = test system: purified tyrosinase from mushroom; experiment: In vitro tyrosinase assay (L-tyrosine to DOPAchrome, absorbance 490 nm); type: biochemical; conditions: absorbance at 490 nm at 20', 60' and 120' of reaction
Text: The assay is set up by mixing purified tyrosinase from mushroom with L-tyrosine with or without test chemical. Active tyrosinase will turn L-tyrosine into DOPAchrome which is orange color. The absorbance at 490 nm which reflects the amount of DOPAchrome and thus the tyrosinase activity was taken at 20′, 60′ and 120′ of reaction.
Most of the current skin-lightening compounds reduce pigment by inhibiting the melanin synthesis enzyme called tyrosinase (FIG. 5). […] The assay is usually done by mixing purified tyrosinase from mushroom with L-tyrosine, which is the substrate of tyrosinase, and with or without test chemical. Reaction with active tyrosinase will quickly turn L-tyrosine into a color product called dopachrome which is an intermediate product in the melanin synthesis pathway. The amount of dopachrome can be measured by a spectrophotometer at A490 nm visible light.

[5] = test system: Mouse melanoma cell line B16-F10; experiment: Melanin content of mouse melanoma cells (absorbance 490 nm); type: cell-based; conditions: 48 hours
Text: as §1, §2

dct mRNA = experiment: Quantitative PCR of dct mRNA in treated embryos; type: in vivo, zebrafish; conditions: qPCR
Text: (§4) We also carried out qPCR to measure the dct mRNA expression.

[6] = test system: dct-expressing cells (melanocyte precursors); experiment: In situ hybridization for dct-expressing cells; type: in vivo, zebrafish; conditions: cell counts
Text: The cDNA of these genes was cloned and used to generate anti-sense RNA probes.
as §4

zebrafish embryos [7] = experiment: Reduction of existing pigment in zebrafish embryos (Protocol 2); type: in vivo; conditions: embryos incubated from 48 hpf to 68 hpf
Description: Embryos were incubated in compounds from 48 hpf when some pigments already formed to 68 hpf.
as §3
Thus, we compared the compound effect on existing pigment using older embryos at 48 hpf. The embryos were again monitored and imaged throughout their development according to Protocol 2.

zebrafish embryos [8] = experiment: Pigment recovery after chemical withdrawal (Protocol 3); type: in vivo; conditions: treated 24-72 hpf, washed, imaged 24 hours after wash
Description: FIG. 4 are photographs of the pigment recovery after chemical withdrawal. Zebrafish embryos were treated with skin lightening compounds from 24-72 hpf followed by several washes to remove the compounds then incubated in […]. Twenty four hours after wash, the embryos were imaged.
Comparison of Skin-Lightening Compounds
It has been reported that melanin usually reappears after the withdrawal of skin lightening products. We studied this question by treating fish embryos from 24-72 hpf, according to Protocol 3, to create strong pigment reduction then wash off the compounds and track the pigment recovery. […] A drug with the ability to permanently remove or inhibit pigment might pose a concern of causing vitiligo.

Molecule	cell proliferation ([1]; 40 uM)	apoptosis / overall cell death in treated embryos (zebrafish embryos [2])	inhibition of pigment formation (zebrafish embryos [3])	overall efficacy of the skin-lightening effects (rank order) (zebrafish embryos [3])	tyrosinase inhibition [4]	melanin synthesis / melanin amount ([5]; 10 uM)	melanin synthesis / melanin amount ([5]; 40 uM)	dct mRNA expression (dct mRNA)	number of dct+ cells [6]	reduction of existing pigment (zebrafish embryos [7])	cell proliferation ([1]; concentration not given)	melanin synthesis / melanin amount ([5]; concentration not given)	pigment recovery after chemical withdrawal (zebrafish embryos [8])	cell proliferation ([1]; 100 mM)	apoptosis / overall cell death in treated embryos (zebrafish embryos [2]; listed as Niacinamide)	reduction of existing pigment (zebrafish embryos [7]; listed as Phenoxidiol)
COc1cc(O)cc(/C=C/Oc2ccccc2C)c1 [A11, 2-Methylphenyl-E-(3-hydroxy-5-methoxy)-styryl ether]	slightly inhibited the melanoma cell proliferation; also recorded: significantly inhibit the melanocyte proliferation	no significant cell death	strong pigmentation inhibition	PTU=phenoxidiol=A11=MoTP>Arbutin>Niacinamide>Tretinoin>kojic acid>gallic acid	does not inhibit tyrosinase; also recorded: no inhibition at all	no melanin reduction	slight reduction; also recorded: reduced	significantly lower expression of dct expression; also recorded: reduction of dct expression	fewer dct-positive cells; also recorded: significant lower number of dct+ cells	strong and quick pigment reduction; also recorded: strong in reducing existing pigment; also recorded: strong reduction of existing pigment						
N#CC(=C(N)Sc1ccccc1N)C(C#N)=C(N)Sc1ccccc1N [MEK-I]								no change in dct expression	no effect on the number of dct expressing cells and not		didn't seem to have any effect on melanocyte proliferation	not				
NC(=S)Nc1ccccc1 [PTU, phenylthiourea]			strong pigmentation inhibition	PTU=phenoxidiol=A11=MoTP>Arbutin>Niacinamide>Tretinoin>kojic acid>gallic acid	strong inhibition			slightly increase of dct expression	no effect on the number of dct expressing cells	moderately reduce existing pigment	didn't seem to have any effect on melanocyte proliferation	significant reduction of melanin	not so			
OC[C@H]1O[C@@H](Oc2ccc(O)cc2)[C@H](O)[C@@H](O)[C@@H]1O [arbutin, Arbutin]			different degrees of pigment inhibition	PTU=phenoxidiol=A11=MoTP>Arbutin>Niacinamide>Tretinoin>kojic acid>gallic acid	strong inhibition			slightly increase of dct expression		moderately reduce existing pigment		significant reduction of melanin		significantly inhibit the melanocyte proliferation		
O=C(O)c1cc(O)c(O)c(O)c1 [gallic acid]			different degrees of pigment inhibition	PTU=phenoxidiol=A11=MoTP>Arbutin>Niacinamide>Tretinoin>kojic acid>gallic acid	enhancement of tyrosinase activity											
O=c1cc(CO)occ1O [kojic acid]			different degrees of pigment inhibition	PTU=phenoxidiol=A11=MoTP>Arbutin>Niacinamide>Tretinoin>kojic acid>gallic acid	strong inhibition					minimal or no pigment reduction	significantly inhibit the melanocyte proliferation	significant reduction of melanin				
NC(=O)c1cccnc1 [niacinamide, Niacinamide]		significant apoptosis	different degrees of pigment inhibition	PTU=phenoxidiol=A11=MoTP>Arbutin>Niacinamide>Tretinoin>kojic acid>gallic acid								not			large increase of apoptosis	
Oc1ccc(C2=Cc3ccc(O)cc3OC2)cc1 [phenoxidiol, phenoxidiol/haginin]		large increase of apoptosis; also recorded: significant apoptosis	strong pigmentation inhibition	PTU=phenoxidiol=A11=MoTP>Arbutin>Niacinamide>Tretinoin>kojic acid>gallic acid				significantly lower expression of dct expression; also recorded: reduction of dct expression	fewer dct-positive cells; also recorded: significant lower number of dct+ cells	strong in reducing existing pigment			not so			strong reduction of existing pigment
CC1=C(/C=C/C(C)=C/C=C/C(C)=C/C(=O)O)C(C)(C)CCC1 [tretinoin, Tretinoin]		significant apoptosis	different degrees of pigment inhibition	PTU=phenoxidiol=A11=MoTP>Arbutin>Niacinamide>Tretinoin>kojic acid>gallic acid						minimal or no pigment reduction	didn't seem to have any effect on melanocyte proliferation	significant reduction of melanin				
(2-Morpholinobutyl)-4-thiophenol [MoTP]		slightly higher level of apoptosis; also recorded: slight increase of apoptosis	strong pigmentation inhibition	PTU=phenoxidiol=A11=MoTP>Arbutin>Niacinamide>Tretinoin>kojic acid>gallic acid	enhancement of tyrosinase activity					moderately reduce existing pigment; also recorded: strong reduction of existing pigment	killed all the melanoma cells; also recorded: significantly inhibit the melanocyte proliferation		limited recovery			
